Tests used:
[1] = test system: Setaria viridis; experiment: Example B: Herbicidal post-emergence action; format: in vivo; conditions: application rate 320 g/ha, rated after about 3 weeks
Procedure: (§1) Herbicidal Post-Emergence Action
(§2) Seeds of monocotylos and dicotylos weed and crop plants are placed in sandy lawn in wood fibre pots, covered with soil and cultivated in a greenhouse under good growth conditions. Two to three weeks after sowing, the test plants are treated at the one-leaf stage. The test compounds, formulated as wettable powders (WP) or as emulsion concentrates (EC), are then, as an aqueous suspension with a water application rate of 800 l/ha (converted), with 0.2% of wetting agent added, sprayed onto the green parts of the plants. After the test plants have been kept in the greenhouse under optimum growth conditions for about 3 weeks, the effect of the preparations is rated visually in comparison to untreated controls (herbicidal effect in percent (%): 100% effect=the plants have died, 0% effect=like control plants).

[2] = test system: Lolium multiflorum; experiment: Example B: Herbicidal post-emergence action; format: in vivo; conditions: application rate 320 g/ha, rated after about 3 weeks
Procedure: as §1, §2

[3] = Source text: Use was made of leaves which, fully developed, were cut from apple trees of the cultivar golden delicious.
Only the cuticles, free from hairs and stoma, of the upper sides of the leaves were then used. They were washed repeatedly alternating with water and a buffer solution of pH 7. The clean cuticles obtained were then mounted on Teflon plates and smoothed and dried with a gentle stream of air.
In the next step, the cuticle membranes obtained in this manner were placed into stainless steel diffusion cells (=transport chambers) for membrane transport studies. […] The arrangement was chosen such that the morphological outside of the cuticles was facing outwards, i.e. exposed to air, whereas the original inside was facing the interior of the diffusion cells.
The diffusion cells were filled with a 30% strength ethylene glycol/water solution. To determine the penetration, in each case 10 μl of the spray liquor of the composition below were applied to the outside of the cuticles. The spray liquor was prepared using local tap water of medium hardness.
After the spray liquors had been applied, the water was allowed to evaporate and the chambers were inverted and placed into thermostated taps in which temperature and atmospheric humidity over the cuticles could be adjusted using a gentle stream of air onto the cuticles with the spray coating (20° C., 60% rh).

[4] = test system: green peach aphid (Myzus persicae); experiment: Example G: Myzus persicae test, hydroponic treatment (MYZUPE sys.); format: in vivo; conditions: concentration 20 ppm, pea plant
Procedure: Myzus persicae Test, Hydroponic Treatment (MYZUPE sys.)
Solvent: 7 parts by weight of dimethylformamide
Emulsifier: 2 parts by weight of alkylaryl polyglycol ether
To produce a suitable preparation of active compound, 1 part by weight of active compound is mixed with the stated amounts of solvent and emulsifier, and the concentrate is diluted with water to the desired concentration.
The preparation of active compound is mixed with water. The stated concentration refers to the amount of active compound per volume unit of water (mg/l=ppm). The treated water is filled into vessels containing a pea plant (Pisum sativum) which is then infested with the green peach aphid (Myzus persicae).
After the desired period of time, the kill in percent is determined. 100% means that all aphids have been killed; 0% means that none of the aphids have been killed.

CCOC(=O)OC1=C(c2c(C)cc(C3CC3)cc2CC)C(=O)NC12CCC(OC)CC2 (stereo not drawn) [Example I-1-c-1]
herbicidal effect (efficacy), post-emergence [1]: ≥ 90%
herbicidal effect (efficacy), post-emergence [2]: ≥ 90%

CCc1cc(C2CC2)cc(C2CC2)c1C1=C(O)C(C)(C)NC1=O [Example I-1-a-21]
Penetration after 24 h/% a.i. + AS (1 g/l) [3]: 1.1%
Penetration after 24 h/% a.i. + RME (1 g/l) [3]: 35.6%
Penetration after 24 h/% a.i. + RME (1 g/l) + AS (1 g/l) [3]: 56.9%

COC1CCC2(CC1)NC(=O)C(c1c(C)cc(C3CC3)cc1C)=C2O (stereo not drawn) [Example I-1-a-4]
efficacy (kill of aphids) [4]: ≥ 90%

— US8541617B2, “Cycloalkylphenyl substituted cyclic ketoenols” (Bayer Cropscience AG, priority 2006, dated 2013)
